Assay results as given in patent US12208167B1 (priority 2024, dated 2025).
Structures can show the parent of a compound that is named as a salt.

What was measured:
[1] = cited from earlier work
[2] = cited from earlier work; remark: listed apart in the source
[3] = single oral dose of 5 mg delayed release tablet, fasting
Protocol: Male and female study participants (in equal proportions) were enrolled in the study. A total of 54 normal, healthy, adult, human study participants were enrolled. All subjects either received test product (test) or reference product (reference) in each period according to the randomization schedule after ensuring maintenance of pre-dose restrictions (fasting for 10 hours prior to administration in sitting posture with 240±2 mL of drinking water at ambient temperature).
A washout period of 7 days was observed between both study periods. Study restrictions with respect to fluid intake and sitting positions were implemented during the restriction periods throughout the study in all periods.
Study participants were instructed not to break, cut, and chew the tablet (test or reference) but to swallow whole and were asked to take it with the specified quantity of water. Water intake was not allowed for 1 hour before dosing until 1 hour after dosing except while administration of the dose. After dosing, the participants remained in sitting position for first two hours. On dosing days, meals were given as per the following schedule. […]
The actual post-dose time of collection was used in the calculation of the above pharmacokinetic parameters. Drug concentrations that are below limit of quantification (BLQ) were treated as “zero” in all pharmacokinetic and statistical calculations. […]

SMILES	mean volume of distribution ([1]; human, in vivo) [L]	tmax ([1]; oral galantamine)	gastrointestinal adverse events ([2]; intranasal, twice daily dose of 11 mg)	tolerability ([2]; intranasal, up to a twice daily dose of 22 mg)	administered compound not cleaved to galantamine, observed in blood ([2]; nasal administration, previous studies)	plasma benzgalantamine concentration profile after test tablet [3]
COc1ccc2c3c1O[C@H]1C[C@@H](O)C=C[C@@]31CCN(C)C2 [galantamine, (4aS,6R,8aS)-3-Methoxy-11-methyl-4a,5,9,10,11,12-hexahydro-6H-benzofuro[3a,3,2-ef][2]benzazepin-6-ol]	175	about 1 hour				
COc1ccc2c3c1OC1C[C@@H](OC(=O)c4ccccc4)C=C[C@@]31CCN(C)C2 (stereo partly drawn) [benzgalantamine, (4aS,6R,8aS)-4a,5,9,10,11,12-hexahydro-3-methoxy-11-methyl-6H[1]benzofuro[3a,3,2-ef][2]benzazepin-6 benzoate gluconate salt]			No gastrointestinal adverse events were observed	well tolerated	up to 10%	almost all values are zero or below limit of quantification (BLQ) at all times
